Assay results reported in patent US7192906B2, “Substituted pyrazole derivatives, production process thereof, and herbicide compositions containing the derivatives” (SDS Biotech K.K., priority 2001, dated 2007).

What was measured:
Type in all cases: in vivo
[1] = tested on: Chenopodium album; experiment: Test Example 1 upland field foliage treatment; conditions: Table 4, upland field foliage treatment, index 0-5
Outline: (§1)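 Post-emergence foliar spray of water-diluted wettable powder at 1 kg active ingredient per hectare, applied 14 days after sowing in upland soil. Weed control or crop phytotoxicity rated 21 days later on a 0–5 scale (5: ≥90%, 0: <10%).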

[2] = tested on: Digitaria adscendens; experiment: Test Example 1 upland field foliage treatment; conditions: Table 4, upland field foliage treatment, index 0-5
Outline: as §1

[3] = tested on: Setaria viridis; experiment: Test Example 1 upland field foliage treatment; conditions: Table 4, upland field foliage treatment, index 0-5
Outline: as §1

[4] = tested on: Stellaria media; experiment: Test Example 1 upland field foliage treatment; conditions: Table 4, upland field foliage treatment, index 0-5
Outline: as §1

[5] = tested on: soybean (Glycine max); experiment: Test Example 1 upland field foliage treatment, crop phytotoxicity; conditions: Table 4, upland field foliage treatment, index 0-5
Outline: as §1

[6] = tested on: wheat (Triticum aestivum); experiment: as above; conditions: Table 4, upland field foliage treatment, index 0-5
Outline: as §1

[7] = tested on: Chenopodium album; experiment: Test Example 2 upland soil treatment; conditions: Table 5, upland soil treatment, index 0-5
Outline: (§2)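 Pre-emergence soil application the day after sowing, active ingredient at 1 kg per hectare as diluted wettable powder, seeds covered with about 1 cm soil. Assessed 21 days after application on a 0–5 scale (5 = ≥90% herbicidal effect or phytotoxicity; 0 = <10%).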

[8] = tested on: Digitaria adscendens; experiment: Test Example 2 upland soil treatment; conditions: Table 5, upland soil treatment, index 0-5
Outline: as §2

[9] = tested on: Setaria viridis; experiment: Test Example 2 upland soil treatment; conditions: Table 5, upland soil treatment, index 0-5
Outline: as §2

[10] = tested on: Stellaria media; experiment: Test Example 2 upland soil treatment; conditions: Table 5, upland soil treatment, index 0-5
Outline: as §2

[11] = tested on: soybean (Glycine max); experiment: Test Example 2 upland soil treatment, crop phytotoxicity; conditions: Table 5, upland soil treatment, index 0-5
Outline: as §2

[12] = tested on: wheat (Triticum aestivum); experiment: as above; conditions: Table 5, upland soil treatment, index 0-5
Outline: as §2

[13] = tested on: Ammannia multiflora; experiment: Test Example 3 paddy field treatment; conditions: Table 6, paddy field treatment, active ingredient 1 kg per hectare, 21st day after dropping, index 0-5
Outline: (§3)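 Weed seeds sown in puddled paddy soil under 4 cm water, with two-leaf Koshihikari rice transplanted; 10 days later a wettable powder was applied to the water surface at 1 kg active ingredient/ha. Scored 21 days after application on a 0–5 scale (0 = <10%, 5 = ≥90% herbicidal effect or phytotoxicity).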

[14] = tested on: Echinochloa crusgalli; experiment: Test Example 3 paddy field treatment; conditions: Table 6, paddy field treatment, active ingredient 1 kg per hectare, 21st day after dropping, index 0-5
Outline: as §3

[15] = tested on: Monochoria vaginalis; experiment: Test Example 3 paddy field treatment; conditions: Table 6, paddy field treatment, active ingredient 1 kg per hectare, 21st day after dropping, index 0-5
Outline: as §3

[16] = tested on: Scirpus juncoides; experiment: Test Example 3 paddy field treatment; conditions: Table 6, paddy field treatment, active ingredient 1 kg per hectare, 21st day after dropping, index 0-5
Outline: as §3

[17] = tested on: Rice (Oryza sativa); experiment: Test Example 3 paddy field treatment, crop phytotoxicity; conditions: Table 6, paddy field treatment, transplanted rice, active ingredient 1 kg per hectare, 21st day after dropping, index 0-5
Outline: as §3

Row | SMILES | Herbicidal activity CA: Chenopodium album [1] | Herbicidal activity DA: Digitaria adscendens [2] | Herbicidal activity SV: Setaria viridis [3] | Herbicidal activity SM: Stellaria media [4] | Herbicidal activity (phytotoxicity) GM: Soybean (Glycine max) [5] | Herbicidal activity (phytotoxicity) TA: Wheat (Triticum aestivum) [6] | Herbicidal activity CA: Chenopodium album [7] | Herbicidal activity DA: Digitaria adscendens [8] | Herbicidal activity SV: Setaria viridis [9] | Herbicidal activity SM: Stellaria media [10] | Herbicidal activity (phytotoxicity) GM: Soybean (Glycine max) [11] | Herbicidal activity (phytotoxicity) TA: Wheat (Triticum aestivum) [12] | Herbicidal activity AM [13] | Herbicidal activity EC [14] | Herbicidal activity MV [15] | Herbicidal activity SJ [16] | Herbicidal activity (phytotoxicity) OS [17]
1 | CNC(=O)C(Cn1cc(C)c(-c2ccccc2)n1)=NOCF [Compound 103] | 5 (herbicidal effect of not less than 90%, or phytotoxicity of 90% or more) | 4 (herbicidal effect of not less than 70% and less than 90%, or phytotoxicity of 70% or more and less than 90%) | 3 (herbicidal effect of not less than 50% and less than 70%, or phytotoxicity of 50% or more and less than 70%) | 5 (herbicidal effect of not less than 90%, or phytotoxicity of 90% or more) | 0 (herbicidal effect of not less than 0% and less than 10%, or phytotoxicity of 0% or more and less than 10%) | 0 (herbicidal effect of not less than 0% and less than 10%, or phytotoxicity of 0% or more and less than 10%) | 5 (herbicidal effect of not less than 90%, or phytotoxicity of 90% or more) | 5 (herbicidal effect of not less than 90%, or phytotoxicity of 90% or more) | 4 (herbicidal effect of not less than 70% and less than 90%, or phytotoxicity of 70% or more and less than 90%) | 5 (herbicidal effect of not less than 90%, or phytotoxicity of 90% or more) | 0 (herbicidal effect of not less than 0% and less than 10%, or phytotoxicity of 0% or more and less than 10%) | 0 (herbicidal effect of not less than 0% and less than 10%, or phytotoxicity of 0% or more and less than 10%) | 5 (herbicidal effect of not less than 90%, or phytotoxicity of 90% or more) | 5 (herbicidal effect of not less than 90%, or phytotoxicity of 90% or more) | 5 (herbicidal effect of not less than 90%, or phytotoxicity of 90% or more) | 5 (herbicidal effect of not less than 90%, or phytotoxicity of 90% or more) | 0 (herbicidal effect of not less than 0% and less than 10%, or phytotoxicity of 0% or more and less than 10%)
2 | C=CCON=C(Cn1cc(C)c(-c2ccccc2)n1)C(=O)NC [Compound 105] | 5 (herbicidal effect of not less than 90%, or phytotoxicity of 90% or more) | 5 (herbicidal effect of not less than 90%, or phytotoxicity of 90% or more) | 5 (herbicidal effect of not less than 90%, or phytotoxicity of 90% or more) | 5 (herbicidal effect of not less than 90%, or phytotoxicity of 90% or more) | 0 (herbicidal effect of not less than 0% and less than 10%, or phytotoxicity of 0% or more and less than 10%) | 0 (herbicidal effect of not less than 0% and less than 10%, or phytotoxicity of 0% or more and less than 10%) | 4 (herbicidal effect of not less than 70% and less than 90%, or phytotoxicity of 70% or more and less than 90%) | 4 (herbicidal effect of not less than 70% and less than 90%, or phytotoxicity of 70% or more and less than 90%) | 4 (herbicidal effect of not less than 70% and less than 90%, or phytotoxicity of 70% or more and less than 90%) | 4 (herbicidal effect of not less than 70% and less than 90%, or phytotoxicity of 70% or more and less than 90%) | 0 (herbicidal effect of not less than 0% and less than 10%, or phytotoxicity of 0% or more and less than 10%) | 0 (herbicidal effect of not less than 0% and less than 10%, or phytotoxicity of 0% or more and less than 10%) | 5 (herbicidal effect of not less than 90%, or phytotoxicity of 90% or more) | 4 (herbicidal effect of not less than 70% and less than 90%, or phytotoxicity of 70% or more and less than 90%) | 5 (herbicidal effect of not less than 90%, or phytotoxicity of 90% or more) | 4 (herbicidal effect of not less than 70% and less than 90%, or phytotoxicity of 70% or more and less than 90%) | 0 (herbicidal effect of not less than 0% and less than 10%, or phytotoxicity of 0% or more and less than 10%)
3 | CNC(=O)C(Cn1cc(C)c(-c2ccc(C=NOC)cc2)n1)=NOC [Compound 111] | 5 (herbicidal effect of not less than 90%, or phytotoxicity of 90% or more) | 4 (herbicidal effect of not less than 70% and less than 90%, or phytotoxicity of 70% or more and less than 90%) | 4 (herbicidal effect of not less than 70% and less than 90%, or phytotoxicity of 70% or more and less than 90%) | 5 (herbicidal effect of not less than 90%, or phytotoxicity of 90% or more) | 0 (herbicidal effect of not less than 0% and less than 10%, or phytotoxicity of 0% or more and less than 10%) | 0 (herbicidal effect of not less than 0% and less than 10%, or phytotoxicity of 0% or more and less than 10%) | 5 (herbicidal effect of not less than 90%, or phytotoxicity of 90% or more) | 4 (herbicidal effect of not less than 70% and less than 90%, or phytotoxicity of 70% or more and less than 90%) | 4 (herbicidal effect of not less than 70% and less than 90%, or phytotoxicity of 70% or more and less than 90%) | 5 (herbicidal effect of not less than 90%, or phytotoxicity of 90% or more) | 0 (herbicidal effect of not less than 0% and less than 10%, or phytotoxicity of 0% or more and less than 10%) | 0 (herbicidal effect of not less than 0% and less than 10%, or phytotoxicity of 0% or more and less than 10%) | 5 (herbicidal effect of not less than 90%, or phytotoxicity of 90% or more) | 5 (herbicidal effect of not less than 90%, or phytotoxicity of 90% or more) | 5 (herbicidal effect of not less than 90%, or phytotoxicity of 90% or more) | 5 (herbicidal effect of not less than 90%, or phytotoxicity of 90% or more) | 0 (herbicidal effect of not less than 0% and less than 10%, or phytotoxicity of 0% or more and less than 10%)
4 | CON=C(Cn1cc(C)c(-c2ccccc2)n1)C(=O)N1CCCC1 [Compound 118] | 4 (herbicidal effect of not less than 70% and less than 90%, or phytotoxicity of 70% or more and less than 90%) | 4 (herbicidal effect of not less than 70% and less than 90%, or phytotoxicity of 70% or more and less than 90%) | 3 (herbicidal effect of not less than 50% and less than 70%, or phytotoxicity of 50% or more and less than 70%) | 5 (herbicidal effect of not less than 90%, or phytotoxicity of 90% or more) | 0 (herbicidal effect of not less than 0% and less than 10%, or phytotoxicity of 0% or more and less than 10%) | 0 (herbicidal effect of not less than 0% and less than 10%, or phytotoxicity of 0% or more and less than 10%) | 4 (herbicidal effect of not less than 70% and less than 90%, or phytotoxicity of 70% or more and less than 90%) | 3 (herbicidal effect of not less than 50% and less than 70%, or phytotoxicity of 50% or more and less than 70%) | 3 (herbicidal effect of not less than 50% and less than 70%, or phytotoxicity of 50% or more and less than 70%) | 4 (herbicidal effect of not less than 70% and less than 90%, or phytotoxicity of 70% or more and less than 90%) | 0 (herbicidal effect of not less than 0% and less than 10%, or phytotoxicity of 0% or more and less than 10%) | 0 (herbicidal effect of not less than 0% and less than 10%, or phytotoxicity of 0% or more and less than 10%) | 4 (herbicidal effect of not less than 70% and less than 90%, or phytotoxicity of 70% or more and less than 90%) | 3 (herbicidal effect of not less than 50% and less than 70%, or phytotoxicity of 50% or more and less than 70%) | 4 (herbicidal effect of not less than 70% and less than 90%, or phytotoxicity of 70% or more and less than 90%) | 4 (herbicidal effect of not less than 70% and less than 90%, or phytotoxicity of 70% or more and less than 90%) | 0 (herbicidal effect of not less than 0% and less than 10%, or phytotoxicity of 0% or more and less than 10%)
